Data from PubChem BioAssay (NCI).
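Cells were grown in 96-well plates and exposed to each compound for 48 hours at five concentrations; endpoints were interpolated linearly between bracketing concentrations, or set to the highest concentration if not reached. GI50 is the concentration that inhibits growth by half. TGI: total growth inhibition.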

What was measured:
Test in all cases: growth of human tumour cells (NCI), 48 h
[1] = tested on: EKVX NSCLC
[2] = tested on: 786-0 renal
[3] = tested on: MDA-MB-231 breast
[4] = tested on: DU-145 prostate
[5] = tested on: HT29 colon
[6] = tested on: HCT-15 colon
[7] = tested on: SNB-19 CNS
[8] = tested on: HCT-116 colon
[9] = tested on: T-47D breast
[10] = tested on: SF-539 CNS
[11] = tested on: CCRF-CEM leukemia
[12] = tested on: UACC-257 melanoma
[13] = tested on: NCI/ADR-RES ovarian
[14] = tested on: HCC-2998 colon
[15] = tested on: NCI-H522 lung
[16] = tested on: MDA-MB-435
[17] = tested on: OVCAR-3 ovarian
[18] = tested on: RPMI-8226 leukemia
[19] = tested on: HOP-92 NSCLC
[20] = tested on: SF-268 CNS
[21] = tested on: HL-60(TB) leukemia
[22] = tested on: SK-MEL-28 melanoma
[23] = tested on: IGROV1 ovarian
[24] = tested on: SK-MEL-2 melanoma
[25] = tested on: TK-10 renal
[26] = tested on: MCF7 breast
[27] = tested on: NCI-H226 lung
[28] = tested on: K-562 leukemia
[29] = tested on: NCI-H23 lung
[30] = tested on: HS 578T breast
[31] = tested on: CAKI-1 renal
[32] = tested on: A549 NSCLC
[33] = tested on: M14 melanoma
[34] = tested on: UO-31 renal
[35] = tested on: SNB-75 CNS
[36] = tested on: OVCAR-4 ovarian
[37] = tested on: HOP-62 NSCLC
[38] = tested on: MALME-3M melanoma
[39] = tested on: LOX IMVI melanoma
[40] = tested on: SR leukemia
[41] = tested on: MOLT-4 leukemia
[42] = tested on: PC-3 prostate
[43] = tested on: RXF 393 renal
[44] = tested on: ACHN renal
[45] = tested on: UACC-62 melanoma
[46] = tested on: SN12C renal
[47] = tested on: SK-OV-3 ovarian
[48] = tested on: OVCAR-8 ovarian
[49] = tested on: U251 CNS
[50] = tested on: SF-295 CNS
[51] = tested on: SK-MEL-5 melanoma
[52] = tested on: NCI-H460 lung
[53] = tested on: A498 renal
[54] = tested on: COLO 205 colon
[55] = tested on: KM12 colon
[56] = tested on: BT-549 breast

COc1ccc(C(O)c2cc3c(N)c(C(=O)Nc4cccc(OC)c4)sc3nc2C)cc1 (configuration not stated)
GI50 [1]: 1600 nM
TGI [1]: > 50000 nM
GI50 [2]: 1140 nM
TGI [2]: 2790 nM
GI50 [3]: 1390 nM
TGI [3]: 3970 nM
GI50 [4]: 2070 nM
TGI [4]: > 50000 nM
GI50 [5]: 1360 nM
TGI [5]: 3700 nM
GI50 [6]: 1000 nM
TGI [6]: 2510 nM
GI50 [7]: 1990 nM
TGI [7]: > 50000 nM
GI50 [8]: 242 nM
TGI [8]: 953 nM
GI50 [9]: 3830 nM
TGI [9]: > 50000 nM
GI50 [10]: 1260 nM
TGI [10]: 3030 nM
GI50 [11]: 1310 nM
TGI [11]: 4640 nM
GI50 [12]: 1740 nM
TGI [12]: > 50000 nM
GI50 [13]: 1380 nM
TGI [13]: 3960 nM
GI50 [14]: 871 nM
TGI [14]: 1630 nM
GI50 [15]: 1430 nM
TGI [15]: 4940 nM
GI50 [16]: 1110 nM
TGI [16]: 2180 nM
GI50 [17]: 1260 nM
TGI [17]: 3230 nM
GI50 [18]: 174 nM
TGI [18]: 809 nM
GI50 [19]: > 50000 nM
TGI [19]: > 50000 nM
GI50 [20]: 1770 nM
TGI [20]: 37900 nM
GI50 [21]: 1350 nM
TGI [21]: > 50000 nM
GI50 [22]: 1580 nM
TGI [22]: 4940 nM
GI50 [23]: 1170 nM
TGI [23]: 3460 nM
GI50 [24]: 49800 nM
TGI [24]: > 50000 nM
GI50 [25]: 5990 nM
TGI [25]: > 50000 nM
GI50 [26]: 289 nM
TGI [26]: > 50000 nM
GI50 [27]: 4010 nM
TGI [27]: 36800 nM
GI50 [28]: 1200 nM
TGI [28]: 7200 nM
GI50 [29]: 1200 nM
TGI [29]: 3290 nM
GI50 [30]: 1650 nM
TGI [30]: 4670 nM
GI50 [31]: 1530 nM
TGI [31]: 5270 nM
GI50 [32]: 5460 nM
TGI [32]: > 50000 nM
GI50 [33]: 1280 nM
TGI [33]: 4650 nM
GI50 [34]: 838 nM
TGI [34]: 1720 nM
GI50 [35]: 12200 nM
TGI [35]: > 50000 nM
GI50 [36]: 2170 nM
TGI [36]: > 50000 nM
GI50 [37]: 1940 nM
TGI [37]: > 50000 nM
GI50 [38]: 1910 nM
TGI [38]: 28900 nM
GI50 [39]: 879 nM
TGI [39]: 1640 nM
GI50 [40]: 301 nM
TGI [40]: 7510 nM
GI50 [41]: 1430 nM
TGI [41]: 4590 nM
GI50 [42]: 1150 nM
TGI [42]: 3040 nM
GI50 [43]: 1010 nM
TGI [43]: 2310 nM
GI50 [44]: 1210 nM
TGI [44]: 3150 nM
GI50 [45]: 1160 nM
TGI [45]: 3070 nM
GI50 [46]: 1240 nM
TGI [46]: 3380 nM
GI50 [47]: 11500 nM
TGI [47]: > 50000 nM
GI50 [48]: 1570 nM
TGI [48]: > 50000 nM
GI50 [49]: 1340 nM
TGI [49]: 7370 nM
GI50 [50]: 1420 nM
TGI [50]: 4500 nM
GI50 [51]: 1690 nM
TGI [51]: 5420 nM
GI50 [52]: 1970 nM
TGI [52]: > 50000 nM
GI50 [53]: > 50000 nM
TGI [53]: > 50000 nM
GI50 [54]: 1750 nM
TGI [54]: > 50000 nM
GI50 [55]: 1030 nM
TGI [55]: 2410 nM
GI50 [56]: 1230 nM
TGI [56]: 3220 nM
